Laboratory results published in a melting point compilation (Tetko et al.; mined from patent text by program, amines drawn as free bases though some values may be those of a salt).

melting point [°C]	SMILES
184 to 186	CNc1ccc(N)cc1C(=O)n1nc(O)c2ccccc21
137	CCCCCCCC(=O)Nc1ccc2c(C(F)(F)F)cc(=O)oc2c1
102 to 104	CCOC(=O)c1cccc(Cn2cnc3ccncc32)c1
122 to 123	CCC(CC)(C(=O)OC1CC(C)(C)N(OCc2ccccc2)C(C)(C)C1)C(=O)OC1CC(C)(C)N(OCc2ccccc2)C(C)(C)C1
218 to 220	Cc1cc(Cl)ccc1OCC(=O)Nc1ccc(S(N)(=O)=O)cc1
148 to 150	COc1cc(-c2cc(C)no2)cc2oc(=O)c(C)c(C)c12
132 to 134	CC#CC1Cc2ccc(C(=O)CCC(=O)N3CCC(c4ccc(Cl)cc4)CC3)cc2CCN1 (stereo not given)
115 to 118	CS(=O)c1ccc(C2ON2S(=O)(=O)c2ccccc2)cc1 (stereo not given)
102 to 104	CCOC(=O)c1cnn(C)c1S(N)(=O)=O
175 to 177	NC(=O)C(Cc1ccccc1N1CCCCC1)c1ccc(C(=O)O)cc1 (stereo not given)
120 to 122	OC1(c2cc(F)cc(CC#COC#CCc3cc(F)cc(C4(O)CCOCC4)c3)c2)CCOCC1
174 to 175	C#Cc1ccc(-c2c(C)nnc(Cl)c2-c2c(F)cc(F)cc2F)cc1
114	CCCc1nc(SC(F)F)c(C(=O)O)n1Cc1ccc(-c2ccccc2S(=O)(=O)NC(=O)NCCC2=CCCCC2)cc1
121 to 123	CCCCCNC(=O)[C@H](Cc1ccc(OCC(=O)O)c(-c2nn[nH]n2)c1)NC(=O)[C@H](Cc1ccccc1)NC(=O)OC(C)(C)C
197 to 199	Cc1cc2[nH]c(CC(C)(C)N3C(=O)c4ccccc4C3=O)nn2n1
266 to 269	Nc1nc2c(ncn2C2CC(CO)C(O)C2F)c(=O)[nH]1 (stereo not given)
239 to 242	O=C(O)c1nn(-c2ccc(Cl)cc2Cl)c2c1CCc1c(Br)csc1-2
171	CC(C)(C)OC(=O)NCC(=O)Nc1ccc(Nc2cccc3c2C(=O)c2ccccc2C3=O)cc1
96.5 to 98	CN1CCC(NC2c3ccccc3Oc3ccccc32)CC1
121 to 123	O=[N+]([O-])c1ccc2c(c1)C1OC1CCO2 (stereo not given)
92 to 93	COc1cc(-c2csc(-n3c(C)ccc3C)n2)c(OC)cc1C
268	CC(=O)CC1NC(=O)c2sccc2-n2cccc21 (stereo not given)
91 to 95	COC(=N)Nc1nc(OC)cc(OC)n1

melting point [°C]	SMILES
160 to 162	CCCn1ncc2c(=O)[nH]c(-c3cc(C(=O)CN4CCOCC4)ccc3OCC)nc21
85	COc1ccc(C(O)CN2CCN(C(c3ccccc3)c3ccccc3)CC2)cc1OC (stereo not given)
125 to 128	COc1cccc([C@H]2O[C@H](CC(=O)NCCCOc3ccc(CC(=O)O)cc3)C(=O)N(CC(C)(C)CO)c3ccc(Cl)cc32)c1OC
206 to 207	Cc1cc2c(-c3cccc(N)c3)c(CC(=O)Nc3ccc(Cl)cc3C(F)(F)F)c(=O)oc2cc1Cl
169	OCCNc1ncc(CN2CCN(c3ccccc3)CC2)c2nc(-c3ccco3)nn12
214 to 216	O=C(c1ccccc1Nc1ccc(O)cc1)N1CCOCC1
255 to 257	Cc1cc(C(F)(F)F)nc2nc(N)ccc12
57 to 59	BrCCCCCc1nnnn1C1CCCCC1
109 to 111	COc1cc(C)c(C(=O)c2c(Cl)cncc2Cl)c(OC)c1OC
181 to 183	CN1c2ccccc2N(C(=O)c2ccccc2)C(=O)c2cccnc21
94 to 95	O=Cc1cnn(-c2c(Cl)cc(C(F)(F)F)cc2Cl)n1
123 to 125	O=C1C=C2CN(C(C(=O)C3CC3)c3ccccc3F)CCC2S1 (stereo not given)
163	Cc1c(Cl)cccc1S(=O)(=O)Nc1ccc2onc(C)c2c1
178 to 180	C=CC[C@@H](C(=O)N[C@H](C(=O)N[C@H](C)c1ccccc1)C(C)(C)C)[C@@H]1OC(C)(C)OC1=O
208 to 209	COCC(=O)Nc1cc(C(N)=O)cc(NC(=O)COC)c1Cl
93 to 94	CCOC(=O)COc1ccc(NS(C)(=O)=O)c(C)c1
259 to 263	CCCn1cc2c(C3C(=O)Nc4ccc(S(=O)(=O)N(C)C)cc43)nc(NCCN(C)C)nc2n1 (stereo not given)
208 to 210	Cc1cc(C(=O)N2Cc3cccn3Cc3ccccc32)ccc1-c1ccncc1
54	CCN(CC)C(=O)Oc1nc(-c2ccccc2)nc2ccccc12
195	CCCN(CCC)CCCC1CCN(CCNC(=O)N2c3cc(C)ccc3C(=O)Nc3cccnc32)CC1
245 to 248	COc1cc2nc(N)nc(-c3ccc(O)cc3)c2cc1OC
170 to 171	COc1cc(Nc2nccc(-c3ccc(NCCCCO)nc3)n2)cc(OC)c1OC
231 to 233	COc1ccc2[nH]c3c(c2c1)CCS(=O)(=O)CCC3

melting point [°C]	SMILES
119 to 120	CC1(C)CCC(C)(C)c2cc(CC#Cc3ccc(C(=O)NO)c(O)c3)ccc21
99 to 101	Cc1nn(C)c2nc(N(CC(C)C)CC3CC3)c(CN(Cc3cc(C(F)(F)F)cc(C(F)(F)F)c3)c3nnn(C)n3)cc12
68 to 70	O=C(NCCCCCn1cncn1)c1ccc(Cl)cc1
103 to 105	O=C1N(Cc2ccc(C(F)(F)F)o2)c2ccccc2C12COc1cc3c(cc12)OCO3 (stereo not given)
107 to 109	CCOC(Cc1ccc(OCCN2CCOc3ccccc32)cc1)C(N)=O (stereo not given)
228 to 230	CC(=N)Nc1cccc(C#N)c1
96 to 98	CCOC(=O)CCCOc1ccc2c(c1)C[C@@H](NC(=O)OC(C)(C)C)CC2
318 to 320	CCCC(=O)c1c[nH]c2c(N3C(=O)c4ccccc4C3=O)cccc2c1=O
85 to 86	Nc1ncccc1OCc1ccccc1F
179	Cc1c(NC(=O)c2ccc(OC[C@@H]3CCCO3)cc2)ccc2c1cc(CNCC(C)(C)C)n2C
172	CC(C)(C)Cc1c(CC(C)(C)C(=O)O)n(Cc2ccc(Cl)cc2)c2ccc(OCc3ccc4ccccc4n3)cc12
150 to 152	O=C1C2C=CC(O2)C(=O)N1c1ccccc1
125 to 127	COc1cc(C(C)C)c2c(c1)S(=O)(=O)N(COC(=O)c1ccsc1)C2=O
200 to 201	COC(=O)Nc1cc(-c2nc(-c3ccco3)no2)ccc1Cl
81.2 to 82.5	O=C1c2ccccc2C(=O)N1OC1CCCC1
183 to 185	CC(=O)Oc1cc(C=CC(=O)c2ccccc2)cc([N+](=O)[O-])c1OC(C)=O
178 to 179	CN(C)C(=O)CNc1cc(-c2ccccc2)nc(-c2ccc(C(F)(F)F)cc2)n1
87.5 to 89	CC(C)NOP(=O)(O)C(C(C)C)N(CC(=O)OCCCl)C(=O)C(F)(F)F (stereo not given)
53 to 54	CC(=O)C1CC(c2ccccc2)CCC1=O (stereo not given)
134 to 136	CCC(CC(=O)OC)Sc1c(C(N)=O)sc2ccc(OC)cc12 (stereo not given)
116 to 118	COc1cccc(Cc2cc(OC)ccc2O)c1
137 to 138	NC(=O)c1ccccc1N1CCc2cc(Cl)ccc21
123 to 124	CCCCC[C@@H](CNC(=O)Nc1c(OC(C)C)c(C)nn1C)c1cccc2c1OCO2

SMILES	melting point [°C]
CC(C)(O)CC(N)C1(c2ccc(Cl)cc2)CCC1 (stereo not given)	60 to 62
